What was measured:
HepG2 [1] = assay: Growth inhibition of human HepG2 cells at 10 uM after 72 hrs by MTT assay; type: functional; conditions: HepG2, 72 h, read-out: GI
MDA-MB-453 [2] = assay: Growth inhibition of human MDA-MB-453 cells at 10 uM after 72 hrs by MTT assay; type: functional; conditions: MDA-MB-453, 72 h, read-out: GI
SW480 [3] = assay: Growth inhibition of human SW480 cells at 10 uM after 72 hrs by MTT assay; type: functional; conditions: SW480, 72 h, read-out: GI
A-375 [4] = assay: Growth inhibition of human A375 cells at 10 uM after 72 hrs by MTT assay; type: functional; conditions: A-375, 72 h, read-out: GI
NCI-H522 [5] = assay: Growth inhibition of human NCI-H522 cells at 10 uM after 72 hrs by MTT assay; type: functional; conditions: NCI-H522, 72 h, read-out: GI
MCF7 = assay: Growth inhibition of human MCF7 cells at 10 uM after 72 hrs by MTT assay; type: functional; conditions: MCF7, 72 h, read-out: GI
HepG2 [6] = assay: Cytotoxicity against human HepG2 cells assessed as reduction in cell viability after 72 hrs by MTT assay; type: functional, cell-based; conditions: HepG2, 72 h
A-375 [7] = assay: Cytotoxicity against human A375 cells assessed as reduction in cell viability after 72 hrs by MTT assay; type: functional, cell-based; conditions: A-375, 72 h
NCI-H522 [8] = assay: Cytotoxicity against human NCI-H522 cells assessed as reduction in cell viability after 72 hrs by MTT assay; type: functional, cell-based; conditions: NCI-H522, 72 h
A-375 [9] = assay: Antitumor activity against human A375 cells xenografted in nude Ncr mouse assessed as reduction in tumor growth at 50 mg/kg, ig dosed once daily for 23 days; type: functional; conditions: A-375, po, 552 h, route intragastric, read-out: TGI
MDA-MB-453 [10] = assay: Cytotoxicity against human MDA-MB-453 cells assessed as reduction in cell viability after 72 hrs by MTT assay; type: functional, cell-based; conditions: MDA-MB-453, 72 h
SW480 [11] = assay: Cytotoxicity against human SW480 cells assessed as reduction in cell viability after 72 hrs by MTT assay; type: functional, cell-based; conditions: SW480, 72 h
[12] = biological target: Serine/threonine-protein kinase B-raf (Homo sapiens, UniProt P15056); assay: Inhibition of BRAF (unknown origin) incubated for 15 mins by fluorescence based assay
Sequence of Serine/threonine-protein kinase B-raf (P15056 whole entry): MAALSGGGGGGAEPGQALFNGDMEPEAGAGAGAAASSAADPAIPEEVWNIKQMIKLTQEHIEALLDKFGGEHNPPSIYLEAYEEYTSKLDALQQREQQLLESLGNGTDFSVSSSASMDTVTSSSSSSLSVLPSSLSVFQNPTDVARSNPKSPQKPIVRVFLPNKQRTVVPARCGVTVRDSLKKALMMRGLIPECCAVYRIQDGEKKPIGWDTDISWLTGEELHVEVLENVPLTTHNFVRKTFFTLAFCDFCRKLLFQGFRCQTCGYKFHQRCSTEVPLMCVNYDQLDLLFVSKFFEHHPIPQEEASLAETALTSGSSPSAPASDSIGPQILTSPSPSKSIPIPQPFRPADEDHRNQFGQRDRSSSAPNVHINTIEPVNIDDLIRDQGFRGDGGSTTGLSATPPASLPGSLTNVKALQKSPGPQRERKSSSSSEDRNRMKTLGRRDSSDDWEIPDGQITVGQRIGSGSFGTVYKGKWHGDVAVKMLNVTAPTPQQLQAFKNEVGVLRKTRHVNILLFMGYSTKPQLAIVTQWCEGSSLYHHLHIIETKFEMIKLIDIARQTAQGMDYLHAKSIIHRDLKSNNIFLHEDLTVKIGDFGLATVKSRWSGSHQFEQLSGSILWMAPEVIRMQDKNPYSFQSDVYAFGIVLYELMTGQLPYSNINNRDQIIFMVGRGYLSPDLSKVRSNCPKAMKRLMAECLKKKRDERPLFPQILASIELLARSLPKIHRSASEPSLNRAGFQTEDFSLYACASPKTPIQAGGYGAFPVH

Row | Compound | inhibition of growth at 10 µM (HepG2 [1]) | inhibition of growth at 10 µM (MDA-MB-453 [2]) | inhibition of growth at 10 µM (SW480 [3]) | inhibition of growth at 10 µM (A-375 [4]) | inhibition of growth at 10 µM (NCI-H522 [5]) | inhibition of growth at 10 µM (MCF7) | IC50 (HepG2 [6]) | IC50 (A-375 [7]) | IC50 (NCI-H522 [8]) | inhibition in vivo at 50 mg/kg (A-375 [9]) | IC50 (MDA-MB-453 [10]) | IC50 (SW480 [11]) | IC50 [12]
1 | CNC(=O)c1cc(Oc2ccc(NC(=O)Nc3ccc(Cl)c(C(F)(F)F)c3)cc2)ccn1 [SORAFENIB] | 59.9% | 36.9% | 28.1% | 44.1% | 39.4% | 23% | 5.74 µM | 16.2 µM | 19.3 µM | 76.6% |  |  | 
2 | Cc1cccc(C(=O)Nc2ccc(Cl)c(C(=O)Nc3ccc(-c4ncc[nH]4)nc3)c2)c1 | 24.8% | 23.6% | 30.8% | 40.8% | 5.3% | 34% |  |  |  |  |  |  | 
3 | Cc1ccc(NC(=O)c2ccc(Cl)cc2)cc1C(=O)Nc1ccc(-c2ncc[nH]2)nc1 | 12.1% | 21.4% | 17.7% | 23.9% | 6.4% | 32.4% |  |  |  |  |  |  | 
4 | Cc1ccc(NC(=O)c2ccc(Cl)c(Cl)c2)cc1C(=O)Nc1ccc(-c2ncc[nH]2)nc1 | 5.5% | 24.4% | 13.7% | 30.6% | 2% | 33% |  |  |  |  |  |  | 
5 | Cc1ccc(NC(=O)c2ccc(Br)cc2)cc1C(=O)Nc1ccc(-c2ncc[nH]2)nc1 | 14.8% | 18.9% | 23.9% | 30.1% | 13.5% | 31.9% |  |  |  |  |  |  | 
6 | Cc1ccc(NC(=O)c2cccc(F)c2)cc1C(=O)Nc1ccc(-c2ncc[nH]2)nc1 | 2.1% | 14.9% | 10.4% | 27.9% | 8.5% | 29.2% |  |  |  |  |  |  | 
7 | O=C(Nc1ccc(Cl)c(C(=O)Nc2ccc(-c3ncc[nH]3)nc2)c1)c1cccc(F)c1 | -12.9% | 19% | 16.7% | 32.3% | 7.6% | 29.7% |  |  |  |  |  |  | 
8 | Cc1cc(C(=O)Nc2ccc(C)c(C(=O)Nc3ccc(-c4ncc[nH]4)nc3)c2)ccc1Cl | 32% | 27.7% | 21.4% | 37.3% | 12.6% | 36.2% |  |  |  |  |  |  | 
9 | Cc1ccc(NC(=O)c2ccc(C(F)(F)F)cc2)cc1C(=O)Nc1ccc(-c2ncc[nH]2)nc1 | 25.7% | 26% | 28.1% | 40.4% | 16.5% | 36.4% |  |  |  |  |  |  | 
10 | Cc1ccc(NC(=O)c2cccc([N+](=O)[O-])c2)cc1C(=O)Nc1ccc(-c2ncc[nH]2)nc1 | 11.1% | 22.3% | 16.7% | 17.6% | 8.9% | 34.9% |  |  |  |  |  |  | 
11 | O=C(Nc1ccc(Cl)c(C(=O)Nc2ccc(-c3ncc[nH]3)nc2)c1)c1cccc(C(F)(F)F)c1 | 39.5% | 46.1% | 26.9% | 44.5% | -27.4% | 39% |  |  |  |  |  |  | 
12 | Cc1ccc(C(=O)Nc2ccc(Cl)c(C(=O)Nc3ccc(-c4ncc[nH]4)nc3)c2)cc1 | -2.7% | 23.2% | 21.1% | 30.1% | 17.2% | 22.4% |  |  |  |  |  |  | 
13 | O=C(Nc1cccc(Cl)c1)c1ccc(Cl)c(C(=O)Nc2ccc(-c3ncc[nH]3)nc2)c1 | 19.4% | 11.6% | 5.8% | 26.1% | -16.2% | 26% |  |  |  |  |  |  | 
14 | O=C(Nc1ccc(Cl)c(C(=O)Nc2ccc(-c3ncc[nH]3)nc2)c1)c1cccc(Cl)c1 | 2.9% | 10.7% | 15.5% | 32.4% | -1.8% | 29.8% |  |  |  |  |  |  | 
15 | O=C(Nc1ccc(Cl)cc1)c1ccc(Cl)c(C(=O)Nc2ccc(-c3ncc[nH]3)nc2)c1 | 18.9% | 16.5% | 12.7% | 21.9% | -20% | 19.4% |  |  |  |  |  |  | 
16 | Cc1ccc(C(=O)Nc2ccc(C)c(C(=O)Nc3ccc(-c4ncc[nH]4)nc3)c2)cc1 | 17.8% | 16.5% | 26.3% | 37.6% | 31.8% | 36.5% |  |  |  |  |  |  | 
17 | COc1cccc(C(=O)Nc2ccc(Cl)c(C(=O)Nc3ccc(-c4ncc[nH]4)nc3)c2)c1 | 2.6% | 19.4% | 17.6% | 34.9% | -2.9% | 29.6% |  |  |  |  |  |  | 
18 | Cc1ccc(NC(=O)c2ccc(Cl)c(C(F)(F)F)c2)cc1C(=O)Nc1ccc(-c2ncc[nH]2)nc1 | 47.9% | 12.5% | 16.7% | 42.9% | -11.4% | 30.5% | 6.17 µM | 14.4 µM |  |  |  |  | 
19 | O=C(Nc1ccc(Cl)c(C(=O)Nc2ccc(-c3ncc[nH]3)nc2)c1)c1ccc(Cl)c(Br)c1 | 35.5% | 15.1% | 12.4% | 38.4% | -15.4% | 29.1% |  |  |  |  |  |  | 
20 | Cc1ccc(NC(=O)c2ccc(F)cc2)cc1C(=O)Nc1ccc(-c2ncc[nH]2)nc1 | 25% | 22% | 10.1% | 24.9% | 6.3% | 28.8% |  |  |  |  |  |  | 
21 | O=C(Nc1ccc(Cl)c(Cl)c1)c1ccc(Cl)c(C(=O)Nc2ccc(-c3ncc[nH]3)nc2)c1 | 57% | 36.3% | 13.4% | 28.4% | -28.6% | 25% | 3.97 µM |  |  |  |  |  | 
22 | O=C(Nc1ccc(Cl)c(C(=O)Nc2ccc(-c3ncc[nH]3)nc2)c1)c1ccc(C(F)(F)F)cc1 | 44% | 48.4% | 15.1% | 47.6% | -22.9% | 35.3% |  |  |  |  |  |  | 
23 | O=C(Nc1ccc(Cl)c(C(=O)Nc2ccc(-c3ncc[nH]3)nc2)c1)c1ccc(F)cc1 | -1.3% | 21.5% | 14.9% | 30.1% | -8.8% | 33.4% |  |  |  |  |  |  | 
24 | Cc1ccc(NC(=O)c2cccc(Br)c2)cc1C(=O)Nc1ccc(-c2ncc[nH]2)nc1 | 6.4% | 20.2% | 24.4% | 31.9% | 10.4% | 33.2% |  |  |  |  |  |  | 
25 | O=C(Nc1cccc(C(F)(F)F)c1)c1ccc(Cl)c(C(=O)Nc2ccc(-c3ncc[nH]3)nc2)c1 | 29.9% | 19.7% | 18.9% | 44.1% | -18% | 25.9% |  |  |  |  |  |  | 
26 | O=C(Nc1ccc(Cl)c(C(=O)Nc2ccc(-c3ncc[nH]3)nc2)c1)c1ccc(Cl)c(Cl)c1 | 57% | 45.3% | 47.2% | 46.1% | -21.1% | 35.5% | 15.2 µM | 9.39 µM |  |  | 11.4 µM | 9.34 µM | 
27 | COc1cccc(C(=O)Nc2ccc(C)c(C(=O)Nc3ccc(-c4ncc[nH]4)nc3)c2)c1 | -4.9% | 18% | 17.6% | 28.2% | 8.7% | 27.9% |  |  |  |  |  |  | 2.47 µM
28 | O=C(Nc1ccc(Cl)c(C(=O)Nc2ccc(-c3ncc[nH]3)nc2)c1)c1ccc(Cl)cc1 | 38.9% | 36.4% | 13.4% | 29.6% | -1.9% | 31.4% |  |  |  |  |  |  | 
29 | COc1ccc(C(=O)Nc2ccc(C)c(C(=O)Nc3ccc(-c4ncc[nH]4)nc3)c2)cc1 | 18.7% | 23.5% | 26.5% | 18.7% | 27.1% | 36% |  |  |  |  |  |  | 40.4 µM

— ChEMBL document CHEMBL3392978 (Eur J Med Chem, 2015)
